Measured values reported in ChEMBL document CHEMBL6134841, “3,5-Dihydroxybenzoic Acid as a Potent Inhibitor of Tyrosine Phenol-Lyase Decreases Fecal Phenol Levels in Mice” (J Med Chem, 2025).
The source made the active and inactive calls. The calls are words filed in the database; no cut-off is given here.

What was measured:
Morganella morganii [1] = assay: Inhibition of recombinant Morganella morganii JCM1672 TPL extracted from Escherichia coli BL21(DE3) assessed as decrease in phenol production incubated for 3 mins in presence of PLP/L-Tyr by LC-MS analysis
[2] = Competitive inhibition of bacterial TPL assessed as decrease in phenol production incubated for 3 mins in presence of PLP/L-Tyr by LC-MS analysis; design: species or system Bacteria
Citrobacter koseri [3] = assay: Inhibition of recombinant Citrobacter koseri JCM1658 TPL extracted from Escherichia coli BL21(DE3) assessed as decrease in phenol production incubated for 3 mins in presence of PLP/L-Tyr by LC-MS analysis
Citrobacter koseri [4] = assay: Effect on TPL expression in Citrobacter koseri JCM1658 up to 500 uM by immunoblot analysis; assay type: functional
Morganella morganii [5] = assay: Inhibition of cell growth in Morganella morganii JCM1672 up to 500 uM incubated up to 24 hrs; assay type: functional, organism-based
Citrobacter koseri [6] = assay: Inhibition of TPL in Citrobacter koseri JCM1658 assessed as decrease in phenol production at 100 to 500 uM incubated for 3 hrs by absorbance based analysis relative to control; settings: dose 100-500 µM
Morganella morganii [7] = assay: Effect on TPL expression in Morganella morganii JCM1672 up to 500 uM by immunoblot analysis; assay type: functional
Mus musculus [8] = assay: Effect on fecal phenol level in C57BL/6J mouse administered orally measured after 7 days by LC-MS analysis; assay type: functional, organism-based; settings: route po, time 7.0 day
Citrobacter koseri [9] = assay: Inhibition of TPL in Citrobacter koseri JCM1658 assessed as decrease in phenol production incubated for 0.5 to 3 hrs by absorbance based analysis; settings: dose 100-500 µM, time 0.5-3 hrs
Citrobacter koseri [10] = assay: Inhibition of cell growth in Citrobacter koseri JCM1658 up to 500 uM incubated up to 24 hrs; assay type: functional, organism-based
Mus musculus [11] = assay: In vivo inhibition of TPL in C57BL/6J mouse assessed as reduction in L-Tyr-induced fecal phenol level administered orally measured after 14 days by LC-MS analysis; assay type: functional, organism-based; settings: route po, time 14.0 day
Morganella morganii [12] = assay: Inhibition of TPL in Morganella morganii JCM1672 assessed as decrease in phenol production at 100 uM incubated for 1 hr by absorbance based analysis
Morganella morganii [13] = assay: Inhibition of TPL in Morganella morganii JCM1672 assessed as decrease in phenol production at 100 to 500 uM incubated for 3 hrs by absorbance based analysis relative to control; settings: dose 100-500 µM
Morganella morganii [14] = assay: Inhibition of TPL in Morganella morganii JCM1672 assessed as decrease in phenol production at 500 uM incubated for 0.5 to 3 hrs by absorbance based analysis; settings: time 0.5-3 hrs
Mus musculus [15] = assay: In vivo inhibition of TPL in feces of C57BL/6J mouse administered orally measured after 14 days by immunoassay; assay type: functional, organism-based; settings: route po, time 14.0 day

Compound	inhibition (Morganella morganii [1])	Ki [2]	also measured
Oc1cccc(O)c1	inactive	–	–
O=C(O)c1ccccc1	inactive	–	–
O=C(O)c1cccnc1	inactive	–	–
COc1ccc(C(=O)O)cc1O [ISOVANILLIC ACID]	Active	44.7 µM	–
O=C(O[C@@H]1Cc2c(O)cc(O)cc2O[C@@H]1c1ccc(O)c(O)c1)c1cc(O)c(O)c(O)c1	Active	–	inhibition (Citrobacter koseri [3]): Active
O=C(O)c1ccc(O)nc1	inactive	–	–
COc1cc(C(=O)O)ccc1O	inactive	–	–
N[C@@H](Cc1ccc(O)cn1)C(=O)O	–	130 µM	–
COc1ccc(C(=O)O)cc1OC	inactive	–	–
O=C(O[C@@H]1Cc2c(O)cc(O)cc2O[C@@H]1c1cc(O)c(O)c(O)c1)c1cc(O)c(O)c(O)c1	Active	–	inhibition (Citrobacter koseri [3]): Active
Oc1cccc(O)c1O	inactive	–	–
O=C(O)c1cncc(O)c1	Active	–	–
O=C(O)c1cc(O)cc(O)c1 [3,5-DIHYDROXYBENZOIC ACID]	Active	25.7 µM	Activity (Citrobacter koseri [4]): No effect; inhibition (Morganella morganii [5]): inactive; Imax (Citrobacter koseri [6]): 56.2%; Activity (Morganella morganii [7]): No effect; Activity (Mus musculus [8]): No effect; inhibition (Citrobacter koseri [9]): Dose-dependent-effect; inhibition (Citrobacter koseri [10]): inactive; inhibition (Mus musculus [11]): Active; inhibition (Morganella morganii [12]): Active; Imax (Morganella morganii [13]): 29.3%; inhibition (Morganella morganii [14]): Active; inhibition (Mus musculus [15]): Active; Tpl Expression Was Below The Detection Limit
O=C(O)c1ccc(O)cc1	inactive	–	–
Oc1ccccc1O	inactive	–	–
O=C(O)Cc1ccc(O)c(O)c1	inactive	–	–
O=C(O)c1cc(O)c(O)c(O)c1 [GALLIC ACID]	Active	73.2 µM	inhibition (Citrobacter koseri [3]): Active
O=C(O)c1ccc(O)c(O)c1 [PROTOCATECHUIC ACID]	Active	45.5 µM	–
O=C(O)c1cccc(O)c1 [3-HYDROXYBENZOIC ACID]	Active	35.8 µM	–
